Biological target: T1, PDE4B2 (Homo sapiens, UniProt Q07343)
T1 construct: made in house; host or cells: SF21 insect cells (baculovirus; virus prepared in SF9 cells)
Test: Inhibition of PDE4B2 activity in a modified SPA (scintillation proximity assay) test
Assay type: biochemical
Settings: recombinant PDE4B2 (SF21 cell supernatant), [3H]cAMP SPA, 0.5 μM cAMP, 37° C.; value given as a range for the group of listed compounds; read-out: Inhibition of the PDE4 activity, −log IC50 (converted)
Method: The PDE4B2 (GB no. M97515) was a gift of Prof. M. Conti (Stanford University, USA). It was amplified from the original plasmid (pCMV5) via PCR with primers Rb9 (5′-[…]-3′) and Rb10 (5′-[…]-3′) and cloned into the pCR-Bac vector (Invitrogen, Groningen, NL).
The recombinant baculovirus was prepared by means of homologous recombination in SF9 insect cells. The expression plasmid was cotransfected with Bac-N-Blue (Invitrogen, Groningen, NL) or Baculo-Gold DNA (Pharmingen, Hamburg) using a standard protocol (Pharmingen, Hamburg). Wt virus-free recombinant virus supernatant was selected using plaque assay methods. After that, high-titre virus supernatant was prepared by amplifying 3 times. PDE was expressed in SF21 cells by infecting 2×10^6 cells/ml with an MOI (multiplicity of infection) between 1 and 10 in serum-free SF900 medium (Life Technologies, Paisley, UK). The cells were cultured at 28° C. for 48-72 hours, after which they were pelleted for 5-10 min at 1000 g and 4° C.
The SF21 insect cells were resuspended, at a concentration of approx. 10^7 cells/ml, in ice-cold (4° C.) homogenization buffer (20 mM Tris, pH 8.2, containing the following additions: 140 mM NaCl, 3.8 mM KCl, 1 mM EGTA, 1 mM MgCl2, 10 mM P-mercaptoethanol, 2 mM benzamidine, 0.4 mM Pefablock, 10 μM leupeptin, 10 μM pepstatin A, 5 μM trypsin inhibitor) and disrupted by ultrasonication. The homogenate was then centrifuged for 10 min at 1000×g and the supernatant was stored at −80° C. until subsequent use (see below). The protein content was determined by the Bradford method (BioRad, Munich) using BSA as the standard.
PDE4B2 activity is inhibited by the said compounds in a modified SPA (scintillation proximity assay) test, supplied by Amersham Biosciences (see procedural instructions “phosphodiesterase [3H]cAMP SPA enzyme assay, code TRKQ 7090”), carried out in 96-well microtitre plates (MTP's). The test volume is 100 μl and contains 20 mM Tris buffer (pH 7.4), 0.1 mg of BSA (bovine serum albumin)/ml, 5 mM Mg^2+, 0.5 μM cAMP (including about 50,000 cpm of [3H]cAMP), 1 μl of the respective substance dilution in DMSO and sufficient recombinant PDE (1000×g supernatant, see above) to ensure that 10-20% of the CAMP is converted under the said experimental conditions. […] After a preincubation of 5 min at 37° C., the reaction is started by adding the substrate (cAMP) and the assay is incubated for a further 15 min; after that, it is stopped by adding SPA beads (50 μl). In accordance with the manufacturer's instructions, the SPA beads had previously been resuspended in water, but were then diluted 1:3 (v/v) in water; the diluted solution also contains 3 mM IBMX to ensure a complete PDE activity stop. After the beads have been sedimented (>30 min), the MTP's are analyzed in commercially available luminescence detection devices. The corresponding IC50 values of the compounds for the inhibition of PDE activity are determined from the concentration-effect curves by means of non-linear regression.

T1 sequence (Q07343 1-564 isoform Q07343-2): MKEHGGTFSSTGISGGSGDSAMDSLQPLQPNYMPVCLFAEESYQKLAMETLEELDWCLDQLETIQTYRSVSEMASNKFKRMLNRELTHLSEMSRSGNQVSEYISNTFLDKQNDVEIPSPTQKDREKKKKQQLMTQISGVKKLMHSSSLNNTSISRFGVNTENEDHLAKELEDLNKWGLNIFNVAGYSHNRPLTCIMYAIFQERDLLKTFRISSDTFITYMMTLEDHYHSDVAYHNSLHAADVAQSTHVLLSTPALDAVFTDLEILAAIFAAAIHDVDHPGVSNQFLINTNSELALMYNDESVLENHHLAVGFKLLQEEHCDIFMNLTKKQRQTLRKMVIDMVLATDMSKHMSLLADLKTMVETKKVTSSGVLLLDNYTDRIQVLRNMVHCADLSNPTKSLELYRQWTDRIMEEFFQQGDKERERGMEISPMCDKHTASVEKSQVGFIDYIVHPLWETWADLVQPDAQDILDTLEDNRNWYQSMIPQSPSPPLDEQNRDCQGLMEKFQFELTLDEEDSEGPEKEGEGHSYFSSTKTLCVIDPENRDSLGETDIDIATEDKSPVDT

CCOc1cc2c(cc1OC)C(c1ccc(-n3ccnc3)cc1)=N[C@@H]1CC[C@@H](O)C[C@H]21 (racemic) [Compound 1, (2RS,4aRS,10bRS)-9-Ethoxy-6-(4-imidazol-1 yl-phenyl)-8-methoxy-1,2,3,4,4a,10b-hexahydro-phenanthridin-2-ol]
IC50: 0.724 to 7.41 nM

CCCn1nnc(-c2ccc(C3=N[C@@H]4CC[C@@H](O)C[C@@H]4c4cc(OC)c(OC)cc43)cc2)n1 (racemic) [Compound 6, (2RS,4aRS,10bRS)-8,9-Dimethoxy-6-[4-(2-propyl-2H-tetrazol-5-yl)-phenyl]-1,2,3,4,4a,10b-hexahydro-phenanthridin-2-ol]
IC50: 0.724 to 7.41 nM

CCOc1cc2c(cc1OC)C(c1ccc(-c3nc(OC)cc(OC)n3)cc1)=N[C@@H]1CC[C@@H](O)C[C@H]21 (racemic) [Compound 3, (2RS,4aRS,10bRS)-6-[4-(4,6-Dimethoxy-pyrimidin-2-yl)-phenyl]-9-ethoxy-8-methoxy-1,2,3,4,4a,10b-hexahydro-phenanthridin-2-ol]
IC50: 0.724 to 7.41 nM

CCOc1cc2c(cc1OC)C(c1ccc(N3CCOCC3)cc1)=N[C@@H]1CC[C@@H](O)C[C@H]21 (racemic) [Compound 5, (2RS,4aRS,10bRS)-9-Ethoxy-8-methoxy-6-(4-morpholin-4-yl-phenyl)-1,2,3,4,4a,10b-hexahydro-phenanthridin-2-ol]
IC50: 0.724 to 7.41 nM

CCOc1cc2c(cc1OC)C(c1ccc(N3CCN(C)CC3)cc1)=N[C@@H]1CC[C@@H](O)C[C@H]21 (racemic) [Compound 2, (2RS,4aRS,10bRS)-9-Ethoxy-8-methoxy-6-[4-(4-methyl-piperazin-1-yl)-phenyl]-1,2,3,4,4a,10b-hexahydro-phenanthridin-2-ol]
IC50: 0.724 to 7.41 nM

CCn1nnc(-c2ccc(C3=N[C@@H]4CC[C@@H](O)C[C@@H]4c4cc(OC(F)F)c(OC)cc43)cc2)n1 (racemic) [Compound 8, (2RS,4aRS,10bRS)-9-(1,1-Difluoro-methoxy)-6-[4-(2-ethyl-2H-tetrazol-5-yl)-phenyl]-8-methoxy-1,2,3,4,4a,10b-hexahydro-phenanthridin-2ol]
IC50: 0.724 to 7.41 nM

CCn1nnc(-c2ccc(C3=N[C@@H]4CC[C@@H](O)C[C@@H]4c4cc(OC)c(OC(F)F)cc43)cc2)n1 (racemic) [Compound 7, (2RS,4aRS,10bRS)-8-(1,1-Difluoro-methoxy)-6-[4-(2ethyl-2H-tetrazol-5-yl)-phenyl]-9-methoxy-1,2,3,4,4a,10b-hexahydro-phenanthridin-2-ol]
IC50: 0.724 to 7.41 nM

CCOc1cc2c(cc1OC)C(c1ccc(-c3csnn3)cc1)=N[C@@H]1CC[C@@H](O)C[C@H]21 (racemic) [Compound 4, (2RS,4aRS,10bRS)-9-Ethoxy-8-methoxy-6-(4-[1,2,3]thiadiazol-4-yl-phenyl)-1,2,3,4,4a,10b-hexahydro-phenanthridin-2ol]
IC50: 0.724 to 7.41 nM

Source: US20070191413A1, “Novel heterocycle-substituted hydroxy-6-phenylphenanthridines and their use as pde4 inhibitors” (Atlanta Pharma AG, priority 2004, published 2007)
